Measured values as given in patent US8563614B2, “Use of treprostinil to treat neuropathic diabetic foot ulcers” (United Therapeutics Corporation, priority 2004, dated 2013).

How the values were obtained:
[1] = tested on: patients with PAD, diabetes and inoperable ischemic foot ulcers; experiment: open-label study of safety and efficacy in patients with PAD, diabetes and inoperable ischemic foot ulcers; assay type: in vivo
Method: The purpose of this open-label study is to evaluate the safety and efficacy of treprostinil sodium, a stable prostacyclin analogue, in ten patients with PAD, diabetes and inoperable ischemic foot ulcers.
Treprostinil sodium was administered as a continuous subcutaneous infusion beginning at 2.5 ng/Kg/Min and titrated to highest tolerated dose for 12 weeks. Patients were monitored for adverse events, wound healing, skin perfusion pressure and ischemic rest pain.

[2] = tested on: diabetics with non-healing wounds in critically ischemic lower extremities; experiment: case-controlled trial in diabetic patients with recalcitrant lower extremity wounds: peri-wound TcPO2 and laser Doppler; assay type: in vivo, human
Method: A case-controlled trial examining the effects of treprostinil sodium (Remodulin®), by continuous subcutaneous infusion, was performed in diabetic patients with recalcitrant lower extremity wounds. The known vasodilator and platelet-aggregation inhibitor properties of treprostinil sodium warranted its evaluation as an adjuvant to wound healing in ischemic extremities. The primary endpoints were wound healing and limb salvage. Amongst the secondary endpoints were resting peri-wound transcutaneous oximetry (TcPO2) and laser Doppler analysis (LD) and the response of TcPO2 and LD to an oxygen challenge at ambient or elevated pressure. If treprostinil sodium reduces inflow resistance distal to the pre-capillary sphincter, the ΔpO2 between the hypoxic wound center and the inflow blood should increase both in magnitude and in the slope of that difference. This would be the physiologic basis for the augmentation of the hypoxic signal.
The seven enrolled patients were diabetics with non-healing wounds present (>3 months) in critically ischemic lower extremities (Fontaine Stage III-IV or Rutherford Stage 4, 5 or 6). The treprostinil sodium (Remodulin®) was given by continuous subcutaneous infusion for the study period of 6 weeks. Candidacy for hyperbaric oxygen treatment was an exclusion criterion (patient refusal, logistical constraints or a recently completed HBO2 course). […]

[3] = tested on: diabetic neuropathy patients having at least one ulcer present on a foot; experiment: administration to humans with diabetic neuropathy suffering from foot ulcers; assay type: in vivo; settings: continuous subcutaneous infusion, 2.5 ng/kg/min raised weekly to target dose, 12 weeks
Method: Diabetic neuropathy patients having at least one ulcer (i.e., small sore or area of tissue gangrene) present on a foot are dosed with increasing amounts of Treprostinil over 12 weeks. The medication is delivered by a small pump that is connected to a catheter placed under the skin. In this manner, increasing dosages of Treprostinil are administered to patients by chronic continuous subcutaneous infusion.
Specifically, a 1.0 mg/mL formulation of Treprostinil sodium (REMODULIN®) is administered subcutaneously using a standard micro-infusion, positive-pressure infusion pump designed for subcutaneous drug delivery (Mini-Med). Patients receive an initial dose of 2.5 ng/kg/min of study drug. If, in a given patient, a dose of 2.5 ng/kg/min is not tolerated (e.g., persistent headache, nausea, emesis, restlessness, anxiety or severe pain at infusion site that cannot be adequately managed by medication or topical treatment), the dose is reduced to 1.25 ng/kg/min. Patients are maintained at 2.5 ng/kg/min (or 1.25 ng/kg/min if 2.5 ng/kg/min is not tolerated) during Week 1. After that, the dose is raised by 2.50 ng/kg/min each week until not tolerated or once a target dose is reached.
Dosing is increased weekly unless not tolerated by the patient. […] One example of a target dose is 15 ng/kg/min. The minimum dose is usually not less than 0.625 ng/kg/min. […]

[4] = tested on: human pulmonary arterial smooth muscle cells; settings: Clapp et al. 2002; cited from earlier work
[5] = tested on: human alveolar macrophages; settings: Raychaudhuri et al. 2002; cited from earlier work
[6] = tested on: patients with class III or class IV heart failure; settings: Patterson et al. 1995; cited from earlier work
[7] = of seven patients who completed the trial to-date, 12 weeks

Row | SMILES | effect on ischemic rest pain, skin perfusion, and wound healing ([1]; conclusion of the study) | increase in LD signals (thermal stimulation response) ([2]; all patients with exception of one, on drug against before infusion) | patients who demonstrated healing in wounds ([2]; seven enrolled patients, continuous subcutaneous infusion for 6 weeks, wounds with mean healing arrest of 10.5 months) | serious adverse events attributed to treprostinil ([1]; continuous subcutaneous infusion from 2.5 ng/Kg/Min titrated to highest tolerated dose, 12 weeks, seven patients completed) | drug related side effect reported ([1]; continuous subcutaneous infusion, 12 weeks, seven patients completed) | patients who experienced complete healing [1, 7] | patients who experienced complete resolution of rest pain [1, 7] | patients who experienced partial healing [1, 7] | foot ulcers present before treatment [3] | new foot ulcers associated with diabetic neuropathy [3] | proliferation of human pulmonary arterial smooth muscle cells [4] | inflammatory cytokine (tumor necrosis factor-α, interleukin-1β, interleukin-6, GM-CSF) secretion and gene expression [5] | vasodilator effects [6]
1 | CCCCC[C@H](O)CC[C@@H]1[C@H]2Cc3cccc(OCC(=O)O)c3C[C@H]2C[C@H]1O [Treprostinil sodium] | positive effect | 236% | All patients but one |  |  |  |  |  |  |  |  |  | 
2 | CCCCC[C@H](O)CC[C@@H]1[C@H]2Cc3cccc(OCC(=O)O)c3C[C@H]2C[C@H]1O [Treprostinil, 9-deoxy-2′,9-α-methano-3-oxa-4,5,6-trinor-3,7-(1′,3′-interphenylene)-13,14-dihydro-prostaglandin F1] |  |  |  | No serious adverse events | mild to moderate infusion site pain | Two | Five | Two | reduction in the number, size and severity | fewer new foot ulcers | inhibits proliferation | inhibits | vasodilator effects
